Consider 9 compounds from ChEMBL document CHEMBL1150008, “Synthesis and -lactamase inhibitory evaluation of novel 6-halo-2-chloromethyl-2-methylpenam-3-carboxylic acids and their sulfones and 6-halo-2-mercaptobenzothiazolylmethyl-2-methylpenam-3-carboxylic acids” (Bioorg Med Chem Lett, 1995).

The target of assay [1] is T1, Beta-lactamase 1 (Bacillus cereus, UniProt P00809).
T1 sequence (P00809 whole entry): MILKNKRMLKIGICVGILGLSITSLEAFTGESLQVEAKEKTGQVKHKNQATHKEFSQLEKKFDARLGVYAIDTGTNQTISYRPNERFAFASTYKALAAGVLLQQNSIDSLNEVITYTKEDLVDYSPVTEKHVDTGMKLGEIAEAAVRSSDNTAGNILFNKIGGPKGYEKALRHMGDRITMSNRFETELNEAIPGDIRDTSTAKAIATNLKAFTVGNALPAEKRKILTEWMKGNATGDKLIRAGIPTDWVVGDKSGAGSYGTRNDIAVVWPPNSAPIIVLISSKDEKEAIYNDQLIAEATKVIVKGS
The assay can be described thus: Inhibition of Beta-lactamase of Bacillus cereus (class A enzyme) without pre-incubation.

The target in assay [2] is T1, Beta-lactamase 1. Kind of assay: Tested for the ability to inhibit Beta-lactamase of Bacillus cereus (class A enzyme) with 10 minutes pre-incubation.

On to `C[C@@]1(CSc2nc3ccccc3s2)S[C@@H]2[C@@H](Cl)C(=O)N2[C@H]1C(=O)O`, for which the IC50 in assay [1] and in assay [2] was over 5000 µM throughout.

Regarding `C[C@@]1(CSc2nc3ccccc3s2)S[C@@H]2[C@@H](Br)C(=O)N2[C@H]1C(=O)O`, the IC50 in assay [1] and in assay [2] was over 5000 µM throughout.

Turning to `C[C@]1(CCl)[C@H](C(=O)O)N2C(=O)[C@H](Cl)[C@H]2S1(=O)=O`, the IC50 (in general, the concentration at which inhibition is half-maximal) worked out at 450 µM in assay [1] and 70 µM in assay [2].

For `CC1(C)[C@H](C(=O)O)N2C(=O)[C@H](Cl)[C@H]2S1(=O)=O`, the IC50 was 1500 µM in assay [1] and 200 µM in assay [2].

Turning to `C[C@@]1(CSc2nc3ccccc3s2)S[C@@H]2[C@@H](F)C(=O)N2[C@H]1C(=O)O`, the IC50 in assay [1] and in assay [2] was over 5000 µM throughout.

Take `C[C@]1(CCl)[C@H](C(=O)O)N2C(=O)C[C@H]2S1(=O)=O`: the values for the IC50 in assay [1] and in assay [2] were 250 µM and 300 µM, respectively.

Consider `C[C@]1(CCl)[C@H](C(=O)O)N2C(=O)[C@H](F)[C@H]2S1(=O)=O`, for which the IC50 in assay [1] and in assay [2] was over 3000 µM each time.

Turning to `C[C@]1(CCl)[C@H](C(=O)O)N2C(=O)[C@H](Br)[C@H]2S1(=O)=O`, the results for the IC50 in assay [1] and in assay [2] were 3000 µM and 1000 µM, respectively.

Take `CC1(C)[C@H](C(=O)O)N2C(=O)C[C@H]2S1(=O)=O` [SULBACTAM]: the IC50 in assay [1] and in assay [2] was 25 µM throughout.
